# Measured values published in US8846914B2, “Compositions to effect neuronal growth” (Neuralstem, Inc., priority 2003, dated 2014).
# Like-named read-outs stand apart in the source and are kept apart here.
# Key:
# Assay type in all cases: cell-based
# [1] = test system: human hippocampal stem cells; test: Neurogenesis, TuJ1 immunostaining / Hoechst (primary screen); details: seven days of compound treatment; for Neuron Number (% of Control): TuJ1+ neurons per area; for Neuron Ratio (% of Control): ratio neuron:total cells (TuJ1/Hoechst)
# Description: FIG. 2 is a bar graph illustrating an example of a neurogenesis profile of compounds selected from primary screening. After seven days of compound treatment, the cells were stained with the neuron-specific anti-tubulin IIIb antibody. TuJ1, for neurons and Hoechst for all cell nuclei. Shown are the relative ratio of neuron: total cells for each compound over the vehicle control in percentage. Typical ratio for vehicle control is 40-50% neurons. The ratio can change by either increased differentiation of stem cells to neurons, decreased proliferation of astrocytes, or increased proliferation of neuronal progenitors.
# FIG. 3 is a bar graph illustrating an example of a neurogenesis profile of compounds selected from primary screening. After seven days of compound treatment, the cells were stained with TuJ1 for neurons. The number of TuJ1+ neurons per area was quantified and expressed as a relative value to the vehicle treated control.
# The final neuron number is detected by immunostaining of the culture with antibodies against neurons and is quantified by counting of the immunopositive neurons and/or by measuring the staining intensity. Therefore, after seven days of compound treatment, the cells are stained with the neuron-specific anti-tubulin IIIb antibody, TuJ1, for neurons and Hoechst for all cell nuclei. The number of TuJ1+ neurons per area is quantified and expressed as a value relative to the vehicle-treated control of Hoechst-stained cells. In this regard, the medium is removed from the wells by decanting and blotting the plates on paper towels. The cells are then fixed in 100 μl of 4% paraformaldehyde per well for thirty minutes at room temperature. The cells are washed three times with 400 μl per well of phosphate-buffered saline (PBS) at pH 7.5 for approximately ten minutes per wash. The plates are then stored at 4° C. in PBS or used immediately for staining.
# The cells are subsequently stained with antibodies against neuron-specific antigens according to standard procedures. The staining process includes decanting the PBS and blocking the cells with 100 μl of 5% Normal Goat Serum (NGS) in PBS for one hour at room temperature. The NGS/PBS is decanted and the plates are blotted on a paper towel. The cells are then permeabilized with 0.1% Triton X-100 in PBS for 30 minutes at room temperature.
# Typical neuron-specific antigens include Type III-beta tubulin and MAP-2c. The total cell number in each well was quantified by staining the cultures with a nuclear dye such as DAPI or Hoechst according to standard procedures. Therefore, once the cells are permeabilized, 20 μl of TuJ1, monoclonal antibody against neuronal class 111 β-tubulin (CoVance (BabCo) MMS-435P) and 32 μl of anti-GFAP polyclonal (DAKO Z0334) are added to and mixed of PBS with 5% NGS. Final dilutions of TuJ1 and anti-GFAP are 1:400 and 1:250, respectively. 90 μl of the antibody solution is added to each well except two eleventh column. 90 μl of PBS/5% NGS is added to the eleventh column and no cells are added to the twelfth column. The plate(s) are sealed with parafilm and incubated at 4° C. overnight.
# After incubating the cells overnight, the antibody solution is decanted and 200 μl of PBS/0.1% Triton X-100 is added to the wells. The plate(s) are placed on a shaker and incubated at room temperature with gentle shaking for ten minutes. The cells are again washed with the PBS/Triton X-100 solution another two times.
# Following staining with TuJ1 and anti-GFAP, 20 μl of Alexa Fluor 488 labeled goat anti-moose IgG (H+L) (Molecular Probes A-11001) and 100 μl of LRSC-IgG, goat anti-rabbit (Jackson Immune 111-295-144) is added and mixed with 10 ml of PBS/5% NGS. 100 μl of the resulting antibody solution is added to each well. The plate(s) are covered with foil and incubated with gentle shaking for up to one hour at room temperature. The cells are again washed as described above with PBS and an Triton X-100. […]
# [2] = test system: Differentiating human hippocampal stem cells; test: Neurogenesis dose-response profile; details: Homo sapiens, Neuron, 168 h; for activity at 30 µM: @30000 nM; for EC50: seven days, 100 pM to 100 μM; for activity at 1 µM: @1000 nM; for activity at 0.3 µM: @300 nM; for activity at 3 µM: @3000 nM; for activity at 10 µM: @10000 nM
# Experimental: FIG. 4 is a line graph illustrating an example of a neurogenesis dose-response profile of selected compounds. Differentiating human hippocampal stem cells were treated for seven days with varying concentrations of “primary hits”. Subsequently, the cells were fixed, stained with anti-beta tubulin antibody, and positive cells were quantified by Array Scan II. Shown are the number of neurons after each treatment normalized against the no-compound control.
# In another in vitro assay, compounds are tested as above at varying concentrations to obtain a dose-response curve and EC50 values (effective concentration of the compound which produces 50% of the maximum possible response for that compound).
# Primary dose-response profiles and secondary functional assays are used to further eliminate compounds from the primary screen based on a lack of dose-dependent effect on neurogenesis, indicated by lack of linearity of dose-response, and in vitro neurotoxicity. The dose-response curve measures neurogenesis over a concentration range of 100 pM to 100 μM. […] Table II contains the summary of EC50 of each compound tested.
# [3] = test system: Differentiating hippocampal human stem cells; test: Long-term treatment in vitro neurogenesis; details: for activity at 10 µM: Homo sapiens, 504 h, three weeks, 5× with 10 μM, compared to the control
# Experimental: FIG. 11 is a bar graph illustrating an example of in vitro neurogenesis profile of the compounds for a long-term treatment. Differentiating hippocampal human stem cells mere treated with vehicle alone or with the test compounds for three weeks. Increase in cell number was determined compared to the control. Shown are several examples that are effective in continued neurogenesis. Bars represent mean+/−SD from six wells.
# In another in vitro assay, compounds of the fused imidazole, iminopyrimidine, nicotinamide, aminomethyl phenoxypiperidine and aryloxypiperidine types are evaluated for their effect on the differentiation of the culture-born cells to mature neurons. More particularly, multipotent human hippocampal stem cells are treated in three doses over a one-week period in N2b media and in the presence of an agent of the type mentioned above. The cells are then fed twice weekly for approximately two more weeks in N2b or Neuralbasal+B27 Media (Gibco) and then cells are fixed using 4% paraformaldehyde. Cells are washed 3× with PBS (pH 7.4) and then stained using a nuclear stain (Hoechst or DAPI) and a mature neuronal marker, MAP-2ab (AP-20) antibody. A secondary antibody, Alexa Fluor 488 labeled goat anti-mouse IgG, is used to identify by fluorescent labeling the mature neurons. The fluorescent intensity and number of cells labeled in a multi-plate format can be measured using for instance a Array Scan II (Cellomics) or similar instrumentation.
# Effects of the long-term NSI compound treatment on human hippocampal stem cells in the absence of mitogen is illustrated in FIG. 11. In FIG. 11, differentiating hippocampal human stem cells are treated with vehicle alone or with the test compounds for three weeks. Increase in cell number was determined compared to the control. Bars represent mean+/−SD from six wells. […] Several examples of NSI compounds are shown to be effective in continued neurogenesis. […] These agents comprise a class of compounds, aminopyrimidines, that, as shown previously, inhibited apoptosis. Accordingly, the aminopyrimidine class of compounds appear ideally suited for neurodegenerative long-term diseases including Alzheimer's disease and aging. Neurogenic agents that are neuroprotective like the sixteen compounds identified above might also be effective therapeutics for other neurodegenerative diseases in mammals including, but not limited to, stroke, traumatic brain injury, Parkinson's disease, and mild cognitive impairment.
# [4] = normalized against no-compound control, read-out: Neuron# Eff
# [5] = read-out: Long Term Treatment #Neur
# [6] = read-out: Long Term Treatment Neur Ratio
# [7] = read-out: Long Term Treatment Prolif
Structure (SMILES),EC50 [2],Neuron Number (% of Control) [1],Neuron Ratio (% of Control) [1],"activity at 30 µM [2, 4]",activity at 30 µM ([2]; read-out: % Neuron Ratio Eff),"activity at 10 µM [3, 5]","activity at 10 µM [3, 6]","activity at 10 µM [3, 7]","activity at 1 µM [2, 4]",activity at 1 µM ([2]; read-out: % Neuron Ratio Eff),"activity at 0.01 µM ([2]; @10 nM, read-out: % Neuron Ratio Eff)","activity at 0.001 µM ([2]; @1 nM, read-out: % Neuron Ratio Eff)","activity at 0.3 µM [2, 4]",activity at 3 µM ([2]; read-out: % Neuron Ratio Eff),"activity at 10 µM [2, 4]","Further increase in neuron numbers over long-term treatment ([3]; FIG. 11, compared to one week of treatment)","activity at 3 µM [2, 4]",activity at 10 µM ([2]; read-out: % Neuron Ratio Eff)
CC(C)(C)OC(=O)NCCNC(=O)c1cccnc1NCC1CCCCC1 [NSI-157],> 1000 nM,135 ± 15 % of Control,142 ± 6 % of Control,–,146%,139 ± 43%,107 ± 22%,146 ± 19%,–,–,–,–,–,–,113%,–,–,–
COc1ccc(CCNc2ncc(C(N)=O)c(NC3CC3)n2)cc1OC [NSI-130],2160 nM,124 ± 8 % of Control,128 ± 4 % of Control,–,144%,128 ± 30%,92 ± 12%,115 ± 11%,–,–,–,–,–,–,202%,effective in stimulating further increases in neuron numbers,–,–
CC(C)CCNc1ncccc1C(=O)N1CCN(Cc2ccccc2)CC1 [NSI-189],253 nM,102 ± 41 % of Control,130 ± 19 % of Control,165%,141%,110 ± 26%,96 ± 19%,144 ± 17%,–,–,–,–,–,–,–,–,–,–
CCCNc1ncc(C(N)=O)c(NC2CCCC2)n1 [NSI-137],> 1000 nM,151 ± 40 % of Control,116 ± 8 % of Control,145%,126%,139 ± 35%,98 ± 18%,111 ± 10%,–,–,–,–,–,–,–,–,–,–
O=C(NCc1nc2ccccn2c1NCC1CCCO1)Oc1ccccc1 (stereo not shown) [NSI-182],0.1 nM,95 ± 9 % of Control,125 ± 10 % of Control,–,–,121 ± 13%,111 ± 13%,95 ± 6%,–,–,–,–,123%,–,–,–,–,112%
CS(=O)(=O)N(CC(=O)NCc1nc2ccccn2c1NCc1ccccc1)c1ccccc1 [NSI-185],786 nM,141 ± 70 % of Control,135 ± 15 % of Control,–,112%,155 ± 30%,105 ± 19%,83 ± 25%,–,–,–,–,–,–,–,–,132%,–

# Now from value to compound, other results behind:
EC50 [2],Structure (SMILES),Neuron Number (% of Control) [1],Neuron Ratio (% of Control) [1],"activity at 30 µM [2, 4]",activity at 30 µM ([2]; read-out: % Neuron Ratio Eff),"activity at 10 µM [3, 5]","activity at 10 µM [3, 6]","activity at 10 µM [3, 7]","activity at 1 µM [2, 4]",activity at 1 µM ([2]; read-out: % Neuron Ratio Eff),"activity at 0.01 µM ([2]; @10 nM, read-out: % Neuron Ratio Eff)","activity at 0.001 µM ([2]; @1 nM, read-out: % Neuron Ratio Eff)","activity at 0.3 µM [2, 4]",activity at 3 µM ([2]; read-out: % Neuron Ratio Eff),"activity at 10 µM [2, 4]","Further increase in neuron numbers over long-term treatment ([3]; FIG. 11, compared to one week of treatment)","activity at 3 µM [2, 4]",activity at 10 µM ([2]; read-out: % Neuron Ratio Eff)
4.8 nM,O=C(NC1CCN(Cc2ccccc2)CC1)c1cccnc1N1CCNCC1 [NSI-143],143 ± 6 % of Control,130 ± 14 % of Control,115%,112%,102 ± 14%,103 ± 12%,153 ± 33%,–,–,–,–,–,–,–,–,–,–
< 0.1 nM,CCCCNc1c(C2CCN(C(=O)c3ccc(C#N)cc3)CC2)nc2ccccn12 [NSI-149],113 ± 16 % of Control,100 ± 6 % of Control,–,–,171 ± 19%,143 ± 11%,89 ± 13%,124%,111%,–,–,–,–,–,–,–,–
1.5 nM,CS(=O)(=O)N1CCCCC1C(=O)NCc1ccc(Nc2c(C3CC3)nc3ccccn23)cc1 (stereo not shown) [NSI-127],81 ± 13 % of Control,104 ± 8 % of Control,137%,–,135 ± 21%,131 ± 15%,103 ± 8%,–,–,114%,–,–,–,–,–,–,–
13 nM,CCN(CCNC(=O)c1cccnc1NCCC(C)C)Cc1cccnc1 [NSI-190],130 ± 22 % of Control,127 ± 9 % of Control,–,–,121 ± 19%,100 ± 12%,98 ± 11%,–,–,–,128%,165%,–,–,–,–,–
0.2 nM,NC(=O)C1CCCN1C(=O)c1cccnc1NCC1CCCCC1 (stereo not shown) [NSI-158],93 ± 17 % of Control,106 ± 9 % of Control,–,–,141 ± 24%,114 ± 14%,99 ± 6%,–,–,–,–,145%,106%,–,–,–,–
85 nM,C=CCNC(=O)c1cccnc1NCc1ccccc1OC [NSI-150],107 ± 29 % of Control,99 ± 6 % of Control,–,112%,120 ± 10%,105 ± 7%,110 ± 25%,–,–,–,–,–,–,–,–,227%,–
